Experiments:
[1] = system: UV-induced ROS in EpiDerm™ Skin Model (human-derived epidermal keratinocytes); test: Two photon fluorescence microscopy on EpiDerm Skin Model (UV-induced ROS down to the basal layer); format: cell-based; settings: result in words (FIG. 4)
Experimental: Two photon fluorescence microscopy was then conducted on a formulation containing Vitamin E and Emblica to determine ability to inhibit formation of ROS. The methods used were similar to those as described above, using confocal microscopy to visualize cells at different depths within intact pieces of skin and then fluorescence to quantify the extent of ROS formation. In the present experiment, however, instead of using human breast skin, the skin used was the EpiDerm™ Skin Model (MatTek Corporation, Mass. USA), which consists of normal, human-derived epidermal keratinocytes which have been cultured to form a multilayered, highly differentiated model of the human epidermis. […]
Prior to UVR exposure, pieces of EpiDerm™ skin were treated with dihydrorhodamine, which partitions throughout the aqueous and lipid regions of the tissue. […] The fluorescence is subsequently detected and quantified to provide an indication of the level of UV-induced ROS formed in deeper layers of the skin. By applying antioxidants topically before irradiation ROS formation can be measured and compared to the ROS formed after a placebo lotion without antioxidants was applied to the skin. In this way, the efficacy of antioxidants to neutralize ROS within deeper layers of the skin can be measured and their relative efficiencies established. […]

[2] = DPPH (α,α-diphenyl-β-picrylhydrazyl) free radical test; format: biochemical; settings: 20 min, 30° C., absorbance 517 nm
Experimental: DPPH is a stable free radical that when dissolved in solution forms an intense purple color. […] The extent to which the color fades can be easily measured and used to rank the relative effectiveness of different materials purported to have antioxidant properties.
Measurements were recorded for antioxidant raw materials in simple methanol solutions. Samples were prepared by dissolving antioxidants at various concentrations in methanol. After sample preparation, 125 μl of the sample or pure methanol as a control were pipetted into sample test tubes followed by 2 ml of methanol and vortexed. Then 2 ml of DPPH stock solution (0.25 mM in methanol) was added to each tube (giving a total volume of 4.125 ml for each sample) and vortexed. Immediately after addition of DPPH, test tubes were covered and placed into a 30° C. water bath for 20 minutes. After the 20 minute incubation, the absorbance of each sample was recorded at 517 nm using a Perkin Elmer Lambda 40 spectrophotometer. All samples were prepared in triplicate and their mean absorbance values were used to express the efficacy of antioxidants at various concentrations in terms of antioxidant reducing units (ARU) by using the following equation: ARU=(Absorbance Methanol Control−Absorbance sample)×10 ARU values range in magnitude from 0 for “no” efficacy to about 15 for raw materials that have high antioxidant efficacy.

human skin lipids = test: Ex vivo tape strip method: inhibition of UVR-induced lipid peroxidation (LOOH); format: biochemical; settings: for % Inhibition of LOOH: tape strips irradiated 10 joules/cm^2 UVR, vs placebo lotion
Text: To determine if antioxidants (Aox) maintain their effectiveness on skin in the presence of UVR, we devised a novel and more relevant model that utilizes human skin lipids as substrates for UVR-induced peroxidation. Lipids removed from skin on broad pieces of tape serve as the substrates for subsequent exposure to UVR. By applying a standard lotion with or without Aox to skin prior to tape-stripping, skin lipids can be collected on tape strips in the presence or absence of Aox that essentially maintains the same proximity that lipids and Aox had on skin. Following UVR exposure, the extent to which the presence of Aox protect lipids against peroxidation from ROS can be measured relative to lipids in the absence of antioxidants.
Human volunteers were recruited for the test and asked not to apply any products to their arms for at least two days before the test Prior to any product treatments, inner aspects of subjects' left and right forearms were wiped with a Kimwipe™ moistened with isopropanol to remove any residues that might be on the surface of the skin. Arms were wiped only once applying gentle pressure and then allowed to dry at least 10 minutes before proceeding. A template (90 mm×50 mm) was positioned on each inner forearm such that two areas could be clearly delineated. Using a superfine tip Sharpie™ pen, a mark was placed at each corner of the template to outline each application site, with two sites delineated per forearm. Using a fingercot, either placebo or antioxidant lotion was applied (100 mg) to a delineated site on a forearm. Care was taken to insure that products were applied evenly within the entire application area. After application, sites were allowed to air-dry for 30 minutes during which subjects were instructed not to allow any clothing to come into contact with test areas.
After lotions dried for 30 minutes, each site was tape-stripped using a 4.0 inch piece of Scotch® Brand No. 800 Prescription Label tape (1.5 inches wide). […] The piece of tape was positioned over a site and then using a finger the tape was gently pressed onto the skin to make good contact. […]
Each tape extract was assayed for total LOOH content using a Lipid Hydroperoxide Assay Kit (Kamiya Biomedical Company, Thousand Oaks, Calif.) following manufacturer's directions. Lipid hydroperoxides were then quantitated by measuring methylene blue formation at 675 nm using a spectrophotometer. Standard curves were prepared using cumene hydroperoxide and were linear over the range of LOOH detected in these experiments. […]
The extent to which antioxidant (Aox) or placebo lotions inhibited UVR-induced lipid hydroperoxide (LOOH) formation was calculated by inserting the values of LOOH determined from the four application sites on each volunteer into the following equation: […]

## CCCCC(CC)COC(=O)C(=Cc1cc(OC)c(O)c(OC)c1)C(=O)OCC(CC)CCCC (stereo not shown) [Diethylhexyl syringylidene malonate]
[1]
  antioxidant or pro-oxidant behaviour within skin exposed to UVR: maintains its antioxidant capability
[2]; level 1.0% in methanol
  ARU (antioxidant reducing units): 5.7 ARU

## CC(=O)N[C@@H](CS)C(=O)O [n-Acetyl cysteine]
[2]; level 0.1% in methanol
  ARU (antioxidant reducing units): 9.9 ARU

## CC1(C)CC[C@]2(C(=O)O)CC[C@]3(C)C(=CC[C@@H]4[C@@]5(C)C[C@@H](O)[C@H](O)[C@@](C)(CO)[C@@H]5CC[C@]43C)[C@@H]2C1 [Arjunolic acid (1%), Arjunolic acid]
[2]; level 1.0% in methanol
  ARU (antioxidant reducing units): 0.4 ARU

## C[N+](C)(C)[C@@H](Cc1c[nH]c(=S)[nH]1)C(=O)[O-] [Ergothiotaine]
[2]; level 0.1% in methanol
  ARU (antioxidant reducing units): 0.0 ARU

## Cc1c(C)c2c(c(C)c1O)CCC(C)(CCCC(C)CCCC(C)CCCC(C)C)O2 (stereo not drawn) [Vitamin E, dl alpha tocopherol]
[2]; level 0.5% in methanol
  ARU (antioxidant reducing units): 6.5 ARU
Human skin lipids; 0.05% in lotion
  % Inhibition of LOOH: −3.40%
Human skin lipids; 0.10% in lotion
  % Inhibition of LOOH: 28.4%
Human skin lipids; 0.25% in lotion
  % Inhibition of LOOH: 61.0%
Human skin lipids; result in words, FIG. 1
  protection of skin lipids against UVR-induced peroxidation (FIG. 1): protects skin lipids in a dose dependant manner
